{"source": "patent EP0717738B1", "about": "“SUBSTITUTED OXAZINE AND THIAZINE OXAZOLIDINONE ANTIMICROBIALS” (priority 1993, dated 1995)", "key": {"S. aureus UC® No. 9213": {"tested_on": "S. aureus UC® No. 9213", "assay": "Murine Assay: in vivo antimicrobial activity, survival of infected mice", "parameters": "species or system Staphylococcus aureus", "conditions": "survival over six days; for ED50: Staphylococcus aureus, oral treatment one hour and five hours after infection, probit analysis", "procedure": "Antimicrobial activity was tested in vivo using the Murine Assay procedure. Groups of female mice (six mice of 18-20 grams each) were injected intraperitoneally with Staphylococcus aureus bacteria which were thawed just prior to use and suspended in brain heart infusion with 4% brewers yeast (Staphylococcus aureus) or brain heart infusion (Streptococcus species). Antibiotic treatment at six dose levels per drug was administered one hour and five hours after infection by either oral intubation or subcutaneous routes. Survival was observed daily for six days. ED50 values based on mortality ratios were calculated using probit analysis. The subject compounds were compared against vancomycin as a control."}, "M. tuberculosis 91-2225": {"tested_on": "M. tuberculosis 91-2225", "assay": "In vitro MIC by standard dilution method, M. tuberculosis", "assay_type": "cell-based", "conditions": "Mycobacterium tuberculosis, 912225; lowest concentration required to kill the organism or inhibit its growth in vitro; visual observation"}, "M. avium LPR": {"tested_on": "M. avium LPR", "assay": "In vitro MIC by standard dilution method, M. avium LPR", "conditions": "Mycobacterium avium, read-out: MIC M. avium LPR"}, "M. avium Lowell Young": {"tested_on": "M. avium Lowell Young", "assay": "In vitro MIC by standard dilution method, M. avium Lowell Young", "conditions": "Mycobacterium avium, read-out: MIC M. avium Lowell Young"}, "[1]": {"tested_on": "M. tuberculosis (Erdman strain)", "assay": "In vivo antimycobacterial activity, organ counts in infected CD-1 mice", "parameters": "species or system Mycobacterium tuberculosis", "conditions": "CD-1 mice infected intravenously with 1 x 10^7 M. tuberculosis", "procedure": "The in vivo data for Table 3 was obtained from CD-1 mice infected intravenously with 1 x 10^7 viable M. tuberculosis (Erdman strain). Twenty-four hours later drug treatment was initiated. All the drugs were given by oral gavage twice daily for four weeks. At the end of therapy, viable cell counts were determined from homogenates of spleens and lungs."}, "[2]": {"conditions": "UC9213, 144 h, female mice infected intraperitoneally, read-out: ED50 (mg/kg) Example, PO"}, "[3]": {"conditions": "UC9213, po, 144 h, read-out: ED50 (mg/kg) Example, PO, female mice infected intraperitoneally"}, "[4]": {"conditions": "100 mg/kg by oral gavage twice daily for four weeks"}, "[5]": {"conditions": "positive control, 25 mg/kg orally twice daily for four weeks"}}, "note": "Values joined by “and” are separate entries in the source; they are usually repeats but may differ in a detail not shown here. Identical values can stand only once. Like-named read-outs stand apart in the source and are kept apart here."}
{"smiles": "O=CNC[C@H]1CN(c2ccc(N3CCOCC3)c(F)c2)C(=O)O1", "note": "[Example 8]", "values": [{"measurement": "ED50", "setting": "S. aureus UC® No. 9213; [2]", "value": 12.4, "unit": "mg/kg"}]}
{"smiles": "CC(=O)NC[C@H]1CN(c2ccc(N3CCOCC3)c(F)c2)C(=O)O1", "note": "[Example 5]", "values": [{"measurement": "ED50", "setting": "S. aureus UC® No. 9213; [2]", "value": 5.6, "unit": "mg/kg"}]}
{"smiles": "CC(=O)NC[C@H]1CN(c2ccc(N3CC[S+]([O-])CC3)c(F)c2)C(=O)O1", "note": "[Example 3, (S)-N-[[3-[3-fluoro-4-(1-oxothiomorpholin-4-yl)phenyl]-2-oxo-5-oxazolidinyl]methyl]acetamide]", "values": [{"measurement": "ED50", "setting": "S. aureus UC® No. 9213; [2]", "value": 3.4, "unit": "mg/kg"}]}
{"smiles": "CC(=O)NC[C@H]1CN(c2ccc(N3CCS(=O)(=O)CC3)c(F)c2)C(=O)O1", "note": "[Example 2, (S)-N-[[3-[3-fluoro-4-(1,1-dioxothiomorpholin-4-yl)phenyl]-2-oxo-5-oxazolidinyl]methyl]acetamide]", "values": [{"measurement": "ED50", "setting": "S. aureus UC® No. 9213; [3]", "value": 2, "unit": "mg/kg"}, {"measurement": "MIC", "setting": "M. tuberculosis 91-2225", "value": 0.5, "unit": "µg/mL"}, {"measurement": "MIC", "setting": "M. avium LPR", "value": 4, "unit": "µg/mL"}, {"measurement": "MIC", "setting": "M. avium Lowell Young", "value": 2, "unit": "µg/mL"}]}
{"smiles": "CC[C@H]1OC(=O)[C@H](C)[C@@H](O[C@H]2C[C@@](C)(OC)[C@@H](O)[C@H](C)O2)[C@H](C)[C@@H](O[C@@H]2O[C@H](C)C[C@H](N(C)C)[C@H]2O)[C@](C)(O)C[C@@H](C)CN(C)[C@H](C)[C@@H](O)[C@]1(C)O", "note": "[AZITHROMYCI N, azithromycin, reference compound]", "values": [{"measurement": "MIC", "setting": "M. avium LPR", "value": 8, "unit": "µg/mL"}, {"measurement": "MIC", "setting": "M. avium Lowell Young", "value": 4, "unit": "µg/mL"}]}
{"smiles": "COC(=O)NC[C@H]1CN(c2ccc(N3CCOCC3)c(F)c2)C(=O)O1", "note": "[Example 9]", "values": [{"measurement": "ED50", "setting": "S. aureus UC® No. 9213; [2]", "value": 4.4, "unit": "mg/kg"}]}
{"smiles": "CC(=O)NC[C@H]1CN(c2ccc(N3CCSCC3)c(F)c2)C(=O)O1", "note": "[Example 1, (S)-N-[[3-[3-fluoro-4-(4-thiomorpholinyl)phenyl]-2-Oxo-5-oxazolidinyl]methyl]acetamide]", "values": [{"measurement": "ED50", "setting": "S. aureus UC® No. 9213; [3]", "value": 1.25, "unit": "mg/kg"}, {"measurement": "MIC", "setting": "M. tuberculosis 91-2225", "value": 0.5, "unit": "µg/mL"}, {"measurement": "Log10 Colony-Forming Units of Mycobacterium tuberculosis Per Organ, Lung", "setting": "[1]; [4]", "value": 3.59}, {"measurement": "Log10 Colony-Forming Units of Mycobacterium tuberculosis Per Organ, Spleen", "setting": "[1]; [4]", "value": 4.61}, {"measurement": "MIC", "setting": "M. avium LPR", "value": 4, "unit": "µg/mL"}, {"measurement": "MIC", "setting": "M. avium Lowell Young", "value": 1, "unit": "µg/mL"}]}
{"smiles": "O=C(NC[C@H]1CN(c2ccc(N3CCOCC3)c(F)c2)C(=O)O1)C(Cl)Cl", "note": "[Example 10]", "values": [{"measurement": "ED50", "setting": "S. aureus UC® No. 9213; [2]", "value": 6.8, "unit": "mg/kg"}]}
{"smiles": "NNC(=O)c1ccncc1", "note": "[ISONIAZID, Isoniazid, reference compound]", "values": [{"measurement": "MIC", "setting": "M. tuberculosis 91-2225", "value": "≤ 0.015", "unit": "µg/mL"}, {"measurement": "Log10 Colony-Forming Units of Mycobacterium tuberculosis Per Organ, Lung", "setting": "[1]; [5]", "value": 3.81}, {"measurement": "Log10 Colony-Forming Units of Mycobacterium tuberculosis Per Organ, Spleen", "setting": "[1]; [5]", "value": 4.36}]}
{"smiles": "CN[C@H](CC(C)C)C(=O)N[C@H]1C(=O)N[C@@H](CC(N)=O)C(=O)N[C@H]2C(=O)N[C@H]3C(=O)N[C@H](C(=O)N[C@H](C(=O)O)c4cc(O)cc(O)c4-c4cc3ccc4O)[C@H](O)c3ccc(c(Cl)c3)Oc3cc2cc(c3O[C@@H]2O[C@H](CO)[C@@H](O)[C@H](O)[C@H]2O[C@H]2C[C@](C)(N)[C@H](O)[C@H](C)O2)Oc2ccc(cc2Cl)[C@H]1O", "note": "[Vancomycin, vancomycin, reference compound]", "values": [{"measurement": "ED50 (mg/kg) Vancomycin, SC", "setting": "S. aureus UC® No. 9213; vancomycin control run alongside the example of the same row, female mice infected intraperitoneally, subcutaneous treatment one hour and five hours after infection, 8640 min", "value": "2.0 mg/kg and 3.9 mg/kg"}]}
{"smiles": "CC(=O)NC[C@H]1CN(c2cc(F)c(N3CCOCC3)c(F)c2)C(=O)O1", "note": "[Example 4]", "values": [{"measurement": "ED50", "setting": "S. aureus UC® No. 9213; [3]", "value": 5.5, "unit": "mg/kg"}, {"measurement": "Log10 Colony-Forming Units of Mycobacterium tuberculosis Per Organ, Lung", "setting": "[1]; [4]", "value": 5.03}, {"measurement": "Log10 Colony-Forming Units of Mycobacterium tuberculosis Per Organ, Spleen", "setting": "[1]; [4]", "value": 5.24}]}
